Here are results for six molecules from patent publication US8795973B2, “Methods for identifying inhibitors of mannan-binding lectin associated serine protease (MASP) proteins and uses thereof” (University of Leceister, priority 2010, dated 2014).

Test [1] concerns the target T1, MASP-1 binding to immobilized MBL (Rattus norvegicus, UniProt Q8CHN8, H450D/I451D/K449D/R453K/S452D).
T1 construct: made in house
T1 sequence (Q8CHN8 25-704 K449D/H450D/I451D/S452D/R453K): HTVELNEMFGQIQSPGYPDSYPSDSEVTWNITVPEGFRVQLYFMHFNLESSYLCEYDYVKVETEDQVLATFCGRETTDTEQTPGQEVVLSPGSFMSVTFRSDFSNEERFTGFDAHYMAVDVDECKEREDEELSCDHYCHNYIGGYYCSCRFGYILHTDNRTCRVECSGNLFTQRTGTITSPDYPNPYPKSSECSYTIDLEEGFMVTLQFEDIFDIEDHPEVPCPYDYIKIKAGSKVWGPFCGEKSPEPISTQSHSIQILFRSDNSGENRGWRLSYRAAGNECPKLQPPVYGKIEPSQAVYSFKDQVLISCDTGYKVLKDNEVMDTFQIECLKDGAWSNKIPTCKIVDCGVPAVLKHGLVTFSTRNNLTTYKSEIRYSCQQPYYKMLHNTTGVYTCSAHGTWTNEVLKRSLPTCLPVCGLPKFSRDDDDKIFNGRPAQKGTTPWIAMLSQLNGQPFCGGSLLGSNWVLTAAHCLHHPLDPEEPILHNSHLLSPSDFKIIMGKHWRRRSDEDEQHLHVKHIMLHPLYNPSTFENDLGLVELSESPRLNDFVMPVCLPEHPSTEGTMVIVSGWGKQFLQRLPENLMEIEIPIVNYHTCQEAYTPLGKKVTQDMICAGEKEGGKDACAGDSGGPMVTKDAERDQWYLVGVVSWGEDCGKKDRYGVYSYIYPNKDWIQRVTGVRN
Briefly: Surface plasmon resonance inhibition of MASP-1 binding to immobilized MBL. Particulars: for Inhibition of MBL/MASP-1 binding (in words): full-length MBL/MASP-1 complexes. As for the experimental part:
Rat MBL-A (referred to as MBL throughout) was produced as described previously. (Wallis and Drickamer, supra (1999)). MASP-1ent (referred to as MASP-1) is a modified form of rat MASP-1 in which the zymogen cleavage site has been replaced by an enterokinase recognition site (DDDDK; SEQ ID NO: 4). […] (Chen and Wallis (2004)). […] (Persikov et al., J Biol Chem 280:19343-19349 (2005)).
MBL (0.025 mg/ml) was immobilized onto the surface of a GLM sensor chip (˜10,000 response units) at pH 4.5, using amine-coupling chemistry. Binding to CUB2 was measured on a ProteOn® XPR36 (BioRad) in 10 mM Tris/HCl pH 7.4, containing 140 mM NaCl, 5 mM Ca^2+ and 0.005% Tween-20 at 25° C., at a flow rate of 25 μL/min. For inhibition assays, MBL was immobilized on to a CM-5 sensor chip (14,000 response units) and binding was measured on a Biacore® 2000 (GE Healthcare) in 20 mM Tris/HCl pH 7.4, containing 140 mM NaCl, 5 mM Ca^2+, and 0.005% SP-20. MASP-1 (100 nM) was premixed with inhibitor and flowed over the chip surface at a rate of 5 μL/min at 25° C. Changes in response units caused by differences in sample composition were subtracted from all data. To account for changes in ionic strength of the buffer due to the inhibitor, binding was measured in the presence of equivalent concentrations of NaCl.
A general note: Surface plasmon resonance follows binding to a sensor surface in real time, without labels.

In another test the target is T2, MASP-1 CUB2 (Rattus norvegicus, UniProt Q8CHN8).
T2 construct: MASP-1 CUB2 (residues E165-A277 of the mature polypeptide, isoform 1); made in house; host or cells: E. coli BL21 DE3
T2 sequence (Q8CHN8 189-301): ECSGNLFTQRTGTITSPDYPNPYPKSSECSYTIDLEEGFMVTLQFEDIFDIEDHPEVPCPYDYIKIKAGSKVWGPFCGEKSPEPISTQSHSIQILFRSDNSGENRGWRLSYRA
Briefly: Isothermal titration calorimetry of Ca2+ binding to MASP-1 CUB2. Particulars: ITC, two independent experiments. On the procedure: The CUB2 domain was made calcium free by EDTA treatment and dialyzed extensively into 50 mM Tris/HCl, pH 7.4 containing 150 mM NaCl. Freshly prepared 2 mM CaCl2 in the same batch of assay buffer was titrated into CUB2 domain (114 μM) in the cell of a VP-isothermal titration calorimeter (Microcal) equilibrated at 25° C. The data were fitted to a 1:1 binding model using the Origin software supplied by the manufacturer, after subtraction of the heats of dilution of the calcium. Because binding was weak, the experiment was carried out under low ‘c-value’ conditions (where the concentration of the protein in the cell is lower than that of the KD).
For orientation: In ITC the heat of successive injections is recorded.

Test [2] concerns lectin pathway complement activation. Briefly: Lectin pathway specific complement activation (Wieslab MBL pathway kit, membrane-attack complex deposition on mannan-coated plates). The test is classed as biochemical. Conditions: three independent experiments, read-out: IC50, inhibition of lectin pathway complement activation. On the procedure:
Lectin pathway specific complement activation was measured using the Wieslab® MBL pathway kit (Euro-Diagnostica), which measures deposition of the membrane attack complexes on a mannan-coated plate. The lectin pathway is functional, even under conditions of high ionic strength (1M NaCl). (Petersen et al., J Immunol Methods 257:107-116 (2001)).

A further test has as its target MBL (Rattus norvegicus, UniProt P19999). Particulars: read-out: Affinity of full-size MASP-1 binding to MBL; cited from earlier work.

Where “and” joins values, the source holds several entries; their conditions need not be identical. Identical values can stand only once. A value given as a limit tells only on which side of the number the result lay.

For `CCN` [ethylamine], the “Inhibition of MBL/MASP-1 binding (in words)” value in test [1] is reported as “inhibitors”.

For `[Ca+2].[Cl-].[Cl-]` [Ca^2+, CaCl2], the Kd on MASP-1 CUB2 (single Ca2+ site model, 25° C.) is 0.49 mM and 0.5 mM. For the same molecule, the “ΔH of Ca2+ binding to MASP-1 CUB2” value at MASP-1 CUB2 is -1.1 ± 0.14 kcal/mol.

Turning to `[Cl-].[Na+]` [NaCl], the “Binding of MASP-1 to MBL, % of maximal” value in test [1] (ionic strength control, all NaCl concentrations tested (up to 550 mM)) is > 60%.

`CN` [methylamine]: the “Inhibition of MBL/MASP-1 binding (in words)” value in test [1] was “inhibitors”.

For the molecule `NCCCC[C@H](N)C(=O)O` [lysine], the IC50 is 49 mM and ~50 mM in test [1] (SPR, MASP-1 100 nM premixed with inhibitor, 25° C., three independent experiments); 25 mM and ~25 mM in test [2].

B1: MASP-1: full-size MBL-associated serine protease 1 (protein, UniProt Q8CHN8 1-704, looked up)
chain: MRFLSFRRLLLYHVLCLTLTEVSAHTVELNEMFGQIQSPGYPDSYPSDSEVTWNITVPEGFRVQLYFMHFNLESSYLCEYDYVKVETEDQVLATFCGRETTDTEQTPGQEVVLSPGSFMSVTFRSDFSNEERFTGFDAHYMAVDVDECKEREDEELSCDHYCHNYIGGYYCSCRFGYILHTDNRTCRVECSGNLFTQRTGTITSPDYPNPYPKSSECSYTIDLEEGFMVTLQFEDIFDIEDHPEVPCPYDYIKIKAGSKVWGPFCGEKSPEPISTQSHSIQILFRSDNSGENRGWRLSYRAAGNECPKLQPPVYGKIEPSQAVYSFKDQVLISCDTGYKVLKDNEVMDTFQIECLKDGAWSNKIPTCKIVDCGVPAVLKHGLVTFSTRNNLTTYKSEIRYSCQQPYYKMLHNTTGVYTCSAHGTWTNEVLKRSLPTCLPVCGLPKFSRKHISRIFNGRPAQKGTTPWIAMLSQLNGQPFCGGSLLGSNWVLTAAHCLHHPLDPEEPILHNSHLLSPSDFKIIMGKHWRRRSDEDEQHLHVKHIMLHPLYNPSTFENDLGLVELSESPRLNDFVMPVCLPEHPSTEGTMVIVSGWGKQFLQRLPENLMEIEIPIVNYHTCQEAYTPLGKKVTQDMICAGEKEGGKDACAGDSGGPMVTKDAERDQWYLVGVVSWGEDCGKKDRYGVYSYIYPNKDWIQRVTGVRN
modifications: full-length
Turning to B1, in the test with MBL, the Kd is 10 to 100 nM.

One may read the IC50 as the point on the concentration scale where inhibition reaches its midpoint.
